Tests used:
[1] = test system: ROS level in tsFT210 cells; assay: Measurement of ROS in tsFT210 cells with H2DCFDA; conditions: 50 μM, 30 min at 32 °C
[2] = test system: tsFT210 cells; assay: Cell cycle analysis of G2-synchronized tsFT210 cells; type: cell-based, mouse; conditions: 5–50 μM, 4 h at 32 °C, compared with the vehicle control
[3] = test system: CDK1 phosphorylation in tsFT210 cells; assay: Western blotting of CDK1 phosphorylation status in tsFT210 cells; type: cell-based, mouse; conditions: 5–50 μM, permissive temperature 32 °C

CCCCCCCCCCCCCCC/C(NCc1ccccc1)=C1/C(=O)OC(CO)C1=O (stereo not drawn) [Compound 7]
change of H2DCFDA fluorescence intensity (ROS) [1]: did not induce a significant change | effect on G2/M arrest of tsFT210 cells after release [2]: predominantly maintained the G2/M arrest of tsFT210 cells in a concentration-dependent manner | inhibition of the dephosphorylation of CDK1 [3]: concentration dependently inhibited the dephosphorylation of CDK1

CCCCCCCCCCCCCCCC(NCc1cccc(C)c1)=C1C(=O)OC(CO)C1=O (stereo not drawn) [Compound 8a]
change of H2DCFDA fluorescence intensity (ROS) [1]: did not induce a significant change | effect on G2/M arrest of tsFT210 cells after release [2]: had little effect on tsFT210 cells | inhibition of the dephosphorylation of CDK1 [3]: did not inhibit the dephosphorylation of CDK1 even at 50 μM

CCCCCCCCCCCCCCCC(NCc1ccccc1O)=C1C(=O)OC(CO)C1=O (stereo not drawn) [Compound 10d]
change of H2DCFDA fluorescence intensity (ROS) [1]: did not induce a significant change | effect on G2/M arrest of tsFT210 cells after release [2]: predominantly maintained the G2/M arrest of tsFT210 cells in a concentration-dependent manner | inhibition of the dephosphorylation of CDK1 [3]: concentration dependently inhibited the dephosphorylation of CDK1
